Data published in US10364226B2, “Pyridazinone compounds and uses thereof” (priority 2013, dated 2019).
pEC50, pIC50: −log10 of the molar value.

Legend:
[1] = test system: Influenza strain A549 A/WSN/33 (H1N1); test: Influenza Antiviral Assay; assay type: cell-based, Influenza A virus; conditions: Influenza A virus, A549, 20 h, neuraminidase fluorescence readout, read-out: % Inhibition
EN PA = EN PA (Influenza A virus, UniProt P15659); test: EN PA FRET Inhibition Assay; assay type: biochemical; conditions: read-out: Potency

Question: How did the pEC50 [1] turn out when O=C(O)c1nn(-c2ccccc2S(=O)(=O)c2ccccc2)cc(O)c1=O [Compound 24] was run?
Answer: Its pEC50 is under 4.00.

Question: And the pIC50 (EN PA)?
Answer: Its pIC50 is over 7.00.

Question: O=C(O)c1nn(-c2ccccc2-c2ccccc2-c2ccccc2)cc(O)c1=O [Compound 35] was tested. Which pEC50 [1] did it give?
Answer: The pEC50 was over 4.70.

Question: What about the pIC50 (EN PA) of the same molecule?
Answer: Its pIC50 is over 7.00.

Question: With O=C(O)c1nn(-c2ccccc2N2CCCC2Cc2ccccc2)cc(O)c1=O (stereo not drawn) [Compound 203] as the molecule, how does the pEC50 [1] read?
Answer: Its pEC50 is 4.00 to 4.70.

Question: What about the pIC50 (EN PA) of the same molecule?
Answer: The pIC50 was 6.00 to 7.00.

Question: CC1(C)CCN(c2ccccc2-n2cc(O)c(=O)c(C(=O)O)n2)CC1 [Compound 206] was tested. Which pEC50 [1] did it give?
Answer: The pEC50 was 4.00 to 4.70.

Question: What about the pIC50 (EN PA) of the same molecule?
Answer: The pIC50 was 6.00 to 7.00.

Question: With CC(C)C1CCN(c2ccccc2-n2cc(O)c(=O)c(C(=O)O)n2)CC1 [Compound 207] as the molecule, how does the pEC50 [1] read?
Answer: The pEC50 was 4.00 to 4.70.

Question: And the pIC50 (EN PA)?
Answer: The pIC50 was 6.00 to 7.00.

Question: CC1CCCN(c2ccccc2-n2cc(O)c(=O)c(C(=O)O)n2)C1 (stereo not drawn) [Compound 210] was tested. Which pEC50 [1] did it give?
Answer: The pEC50 was under 4.00.

Question: What about the pIC50 (EN PA) of the same molecule?
Answer: The pIC50 was 6.00 to 7.00.

Question: With O=C(O)c1nn(-c2ccccc2N2CCCC(c3ccccc3)C2)cc(O)c1=O (stereo not drawn) [Compound 211] as the molecule, how does the pEC50 [1] read?
Answer: The pEC50 was 4.00 to 4.70.

Question: What about the pIC50 (EN PA) of the same molecule?
Answer: The pIC50 was 6.00 to 7.00.

Question: Cc1ccc(OC(C)C)c(-c2ccccc2-n2cc(O)c(=O)c(C(=O)O)n2)c1 [Compound 314] was tested. Which pEC50 [1] did it give?
Answer: The pEC50 was under 4.00.

Question: What about the pIC50 (EN PA) of the same molecule?
Answer: The pIC50 was 6.00 to 7.00.

Question: How did the pEC50 [1] turn out when O=C(O)c1nn(-c2ccccc2-c2ccccc2OC2CCCC2)cc(O)c1=O [Compound 319] was run?
Answer: Its pEC50 is over 4.70.

Question: And the pIC50 (EN PA)?
Answer: Its pIC50 is 6.00 to 7.00.

Question: How did the pEC50 [1] turn out when O=C(O)c1nn(-c2ccccc2-c2ccc3[nH]ccc3c2)cc(O)c1=O [Compound 320] was run?
Answer: The pEC50 was under 4.00.

Question: And the pIC50 (EN PA)?
Answer: The pIC50 was 6.00 to 7.00.

Question: Which results are given for O=C(O)c1nn(CCc2ccccc2C(F)(F)F)cc(O)c1=O [Compound 400, 1-(2-(trifluoromethyl)phenethyl)-1,4-dihydro-5-hydroxv-4-oxopyridazine-3-carboxylic acid]?
Answer: pEC50 [1]: < 4.00; pIC50 (EN PA): > 7.00

Question: O=C(O)c1nn(CCc2ccccc2)cc(O)c1=O [Compound 401] was tested. Which pEC50 [1] did it give?
Answer: Its pEC50 is under 4.00.

Question: And the pIC50 (EN PA)?
Answer: Its pIC50 is 6.00 to 7.00.

Question: How did the pEC50 [1] turn out when O=C(O)c1nn(CCCc2ccccc2)cc(O)c1=O [Compound 402] was run?
Answer: The pEC50 was under 4.00.

Question: And the pIC50 (EN PA)?
Answer: Its pIC50 is 6.00 to 7.00.

Question: With O=C(O)c1nn(Cc2ccccc2-c2ccccc2)cc(O)c1=O [Compound 403] as the molecule, how does the pEC50 [1] read?
Answer: Its pEC50 is under 4.00.

Question: And the pIC50 (EN PA)?
Answer: The pIC50 was over 7.00.

Question: How did the pEC50 [1] turn out when CC(C)(C)OC(=O)n1cc(CCn2cc(O)c(=O)c(C(=O)O)n2)c2ccccc21 [Compound 404] was run?
Answer: Its pEC50 is under 4.00.

Question: And the pIC50 (EN PA)?
Answer: The pIC50 was over 7.00.

Question: What does the source list for CCOC(=O)c1nn(CC2(c3cccc(C(F)(F)F)c3)CCCC2)cc(O)c1=O [Compound 405]?
Answer: pEC50 [1]: > 4.70; pIC50 (EN PA): ≤ 6.00

Question: Which results are given for O=C(O)c1nn(CC2(c3cccc(C(F)(F)F)c3)CCCC2)cc(O)c1=O [Compound 406]?
Answer: pEC50 [1]: > 4.70; pIC50 (EN PA): > 7.00

Question: With O=C(O)c1nn(CCc2c[nH]c3ccccc23)cc(O)c1=O [Compound 407] as the molecule, how does the pEC50 [1] read?
Answer: The pEC50 was under 4.00.

Question: And the pIC50 (EN PA)?
Answer: The pIC50 was 6.00 to 7.00.

Question: With CCOC(=O)c1nn(CCc2ccccc2C(F)(F)F)cc(O)c1=O [Compound 408] as the molecule, how does the pEC50 [1] read?
Answer: The pEC50 was 4.00 to 4.70.

Question: And the pIC50 (EN PA)?
Answer: The pIC50 was at most 6.00.

Question: With O=C(O)c1nn(Cc2ccccc2)cc(O)c1=O [Compound 409] as the molecule, how does the pEC50 [1] read?
Answer: The pEC50 was under 4.00.

Question: What about the pIC50 (EN PA) of the same molecule?
Answer: Its pIC50 is 6.00 to 7.00.

Question: With O=C(O)c1nn(CC2(c3ccccc3)CCCC2)cc(O)c1=O [Compound 410] as the molecule, how does the pEC50 [1] read?
Answer: Its pEC50 is over 4.70.

Question: And the pIC50 (EN PA)?
Answer: Its pIC50 is over 7.00.

Question: With CCOC(=O)c1nn(CC2(c3ccccc3)CCCC2)cc(O)c1=O [Compound 411] as the molecule, how does the pEC50 [1] read?
Answer: Its pEC50 is over 4.70.

Question: What about the pIC50 (EN PA) of the same molecule?
Answer: The pIC50 was 6.00 to 7.00.

Question: With O=C(O)c1nn(CCc2cccc(C(F)(F)F)c2)cc(O)c1=O [Compound 412] as the molecule, how does the pEC50 [1] read?
Answer: The pEC50 was under 4.00.

Question: And the pIC50 (EN PA)?
Answer: Its pIC50 is over 7.00.

Question: How did the pEC50 [1] turn out when Cc1ccc(C(C)(C)Cn2cc(O)c(=O)c(C(=O)O)n2)cc1 [Compound 416] was run?
Answer: Its pEC50 is 4.00 to 4.70.

Question: And the pIC50 (EN PA)?
Answer: The pIC50 was over 7.00.
